Measured values from ChEMBL document CHEMBL1135353, “Synthesis and initial SAR studies of 3,6-disubstituted pyrazolo[1,5-a]pyrimidines: a new class of KDR kinase inhibitors” (Bioorg Med Chem Lett, 2002).

How the values were obtained:
[1] = biological target: Vascular endothelial growth factor receptor 2 (Homo sapiens, UniProt P35968); experiment: Inhibitory activity at VEGF-2 receptor.
[2] = biological target: Vascular endothelial growth factor receptor (Homo sapiens, UniProt P17948+P35916+P35968); conditions: endothelial cell
Description: Inhibition of VEGF-stimulated mitogenesis in human umbilical vein endothelial cells

[3] = Partition coefficient (logP); format: physicochemical; conditions: octanol/water
[4] = biological target: VEGF-receptor 2 and PDGF-receptor beta (KDR and PDGFR beta) (Homo sapiens) (UniProt P09619+P35968); experiment: Selectivity for Vascular endothelial growth factor receptor 2 over Platelet-derived growth factor receptor beta; format: protein assay
[5] = biological target: Vascular endothelial growth factor receptor 2 and 3 (KDR and Flt-4) (Homo sapiens) (UniProt P35916+P35968); experiment: Selectivity for VEGF-receptor 2 (KDR) over Vascular endothelial growth factor receptor 3 (FLT4); format: protein assay
[6] = biological target: VEGF-receptor 2 and tyrosine-protein kinase SRC (Homo sapiens) (UniProt P12931+P35968); experiment: Selectivity for Vascular endothelial growth factor receptor 2 over c-Src kinase; format: protein assay
Sequence of VEGF-receptor 2 and tyrosine-protein kinase SRC (Homo sapiens) (P12931 whole entry, looked up): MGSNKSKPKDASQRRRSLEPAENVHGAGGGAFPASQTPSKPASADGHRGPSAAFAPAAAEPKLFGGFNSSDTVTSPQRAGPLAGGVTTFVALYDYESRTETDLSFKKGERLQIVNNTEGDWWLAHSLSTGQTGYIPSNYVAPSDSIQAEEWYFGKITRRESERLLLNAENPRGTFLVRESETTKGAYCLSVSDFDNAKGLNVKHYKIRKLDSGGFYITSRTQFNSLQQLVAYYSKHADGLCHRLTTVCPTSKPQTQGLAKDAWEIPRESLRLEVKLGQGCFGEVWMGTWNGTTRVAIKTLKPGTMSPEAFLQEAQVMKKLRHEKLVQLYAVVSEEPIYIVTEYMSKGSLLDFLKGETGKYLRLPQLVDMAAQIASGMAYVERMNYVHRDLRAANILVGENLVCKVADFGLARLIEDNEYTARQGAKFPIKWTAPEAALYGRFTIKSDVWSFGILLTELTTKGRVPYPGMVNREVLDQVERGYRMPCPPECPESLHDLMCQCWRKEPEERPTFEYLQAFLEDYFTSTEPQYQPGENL
Sequence of VEGF-receptor 2 and tyrosine-protein kinase SRC (Homo sapiens) (P35968 whole entry, looked up): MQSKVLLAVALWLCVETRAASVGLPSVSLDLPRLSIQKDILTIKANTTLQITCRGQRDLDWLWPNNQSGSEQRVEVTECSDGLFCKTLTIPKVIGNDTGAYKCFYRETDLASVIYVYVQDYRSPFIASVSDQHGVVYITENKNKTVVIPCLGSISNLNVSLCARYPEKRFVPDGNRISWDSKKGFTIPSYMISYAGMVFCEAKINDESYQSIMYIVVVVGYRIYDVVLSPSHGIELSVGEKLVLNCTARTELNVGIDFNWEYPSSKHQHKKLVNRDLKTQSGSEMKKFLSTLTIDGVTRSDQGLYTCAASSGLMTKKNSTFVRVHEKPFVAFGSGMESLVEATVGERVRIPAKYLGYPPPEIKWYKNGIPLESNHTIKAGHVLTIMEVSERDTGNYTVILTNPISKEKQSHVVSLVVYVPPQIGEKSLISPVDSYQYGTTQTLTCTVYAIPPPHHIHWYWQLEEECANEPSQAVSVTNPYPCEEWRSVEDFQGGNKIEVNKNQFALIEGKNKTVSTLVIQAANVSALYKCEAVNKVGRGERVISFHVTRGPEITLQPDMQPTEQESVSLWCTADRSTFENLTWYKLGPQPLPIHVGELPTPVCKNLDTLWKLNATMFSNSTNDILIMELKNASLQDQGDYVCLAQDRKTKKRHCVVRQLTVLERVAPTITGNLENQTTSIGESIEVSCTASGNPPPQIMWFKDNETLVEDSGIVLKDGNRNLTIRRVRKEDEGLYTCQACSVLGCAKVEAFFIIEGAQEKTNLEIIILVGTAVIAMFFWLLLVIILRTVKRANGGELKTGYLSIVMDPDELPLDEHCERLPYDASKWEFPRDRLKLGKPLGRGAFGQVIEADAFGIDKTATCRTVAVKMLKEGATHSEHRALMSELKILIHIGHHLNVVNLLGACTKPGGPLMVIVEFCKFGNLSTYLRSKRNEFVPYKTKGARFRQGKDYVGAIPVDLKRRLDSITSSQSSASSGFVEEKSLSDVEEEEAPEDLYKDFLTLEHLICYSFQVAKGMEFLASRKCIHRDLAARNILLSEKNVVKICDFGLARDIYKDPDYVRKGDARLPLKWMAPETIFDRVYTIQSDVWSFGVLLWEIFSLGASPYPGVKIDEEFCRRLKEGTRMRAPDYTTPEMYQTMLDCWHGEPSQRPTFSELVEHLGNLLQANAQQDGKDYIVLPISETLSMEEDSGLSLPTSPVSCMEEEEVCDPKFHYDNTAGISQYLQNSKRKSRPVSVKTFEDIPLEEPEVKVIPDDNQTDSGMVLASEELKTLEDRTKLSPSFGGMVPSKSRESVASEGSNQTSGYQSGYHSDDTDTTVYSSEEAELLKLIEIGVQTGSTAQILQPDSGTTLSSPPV

Sequence of Vascular endothelial growth factor receptor 2 (P35968 whole entry): as the sequence (P35968 whole entry, looked up) above
Sequence of Vascular endothelial growth factor receptor 2 and 3 (KDR and Flt-4) (Homo sapiens) (P35916 whole entry, looked up): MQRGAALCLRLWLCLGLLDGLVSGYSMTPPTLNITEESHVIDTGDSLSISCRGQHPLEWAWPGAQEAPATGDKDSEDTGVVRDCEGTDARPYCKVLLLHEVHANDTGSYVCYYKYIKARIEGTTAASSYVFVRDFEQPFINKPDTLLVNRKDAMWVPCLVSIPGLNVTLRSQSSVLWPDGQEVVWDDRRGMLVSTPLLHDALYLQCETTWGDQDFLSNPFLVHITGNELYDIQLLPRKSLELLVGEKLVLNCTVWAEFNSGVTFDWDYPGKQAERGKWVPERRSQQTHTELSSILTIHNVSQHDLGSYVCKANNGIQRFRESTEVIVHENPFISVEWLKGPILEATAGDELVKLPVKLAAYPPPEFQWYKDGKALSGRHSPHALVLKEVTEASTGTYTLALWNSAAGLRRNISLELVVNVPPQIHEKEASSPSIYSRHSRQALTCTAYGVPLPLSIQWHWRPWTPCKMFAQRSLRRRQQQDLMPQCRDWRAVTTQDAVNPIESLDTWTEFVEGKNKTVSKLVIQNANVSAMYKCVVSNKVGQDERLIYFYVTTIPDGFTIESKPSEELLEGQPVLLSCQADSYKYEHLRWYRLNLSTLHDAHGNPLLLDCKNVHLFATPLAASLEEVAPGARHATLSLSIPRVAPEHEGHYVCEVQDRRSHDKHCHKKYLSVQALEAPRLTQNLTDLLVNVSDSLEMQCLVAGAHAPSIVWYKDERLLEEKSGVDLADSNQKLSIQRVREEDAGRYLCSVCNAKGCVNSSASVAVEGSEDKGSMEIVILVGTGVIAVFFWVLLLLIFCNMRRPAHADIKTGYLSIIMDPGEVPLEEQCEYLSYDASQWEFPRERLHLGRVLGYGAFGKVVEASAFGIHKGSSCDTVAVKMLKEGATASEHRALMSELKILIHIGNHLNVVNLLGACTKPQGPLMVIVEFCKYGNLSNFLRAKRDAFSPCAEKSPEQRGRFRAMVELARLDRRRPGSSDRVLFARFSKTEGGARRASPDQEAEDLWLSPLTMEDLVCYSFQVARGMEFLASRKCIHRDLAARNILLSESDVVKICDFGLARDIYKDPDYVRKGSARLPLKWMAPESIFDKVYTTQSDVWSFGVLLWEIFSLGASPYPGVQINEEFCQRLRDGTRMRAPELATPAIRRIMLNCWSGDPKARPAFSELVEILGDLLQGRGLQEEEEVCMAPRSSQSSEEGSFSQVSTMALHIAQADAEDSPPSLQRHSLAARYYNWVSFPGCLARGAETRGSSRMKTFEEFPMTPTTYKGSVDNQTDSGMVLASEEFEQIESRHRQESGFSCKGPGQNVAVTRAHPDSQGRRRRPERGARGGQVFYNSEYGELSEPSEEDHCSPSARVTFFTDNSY
Sequence of Vascular endothelial growth factor receptor 2 and 3 (KDR and Flt-4) (Homo sapiens) (P35968 whole entry, looked up): as the sequence (P35968 whole entry, looked up) above
Sequence of VEGF-receptor 2 and PDGF-receptor beta (KDR and PDGFR beta) (Homo sapiens) (P09619 whole entry, looked up): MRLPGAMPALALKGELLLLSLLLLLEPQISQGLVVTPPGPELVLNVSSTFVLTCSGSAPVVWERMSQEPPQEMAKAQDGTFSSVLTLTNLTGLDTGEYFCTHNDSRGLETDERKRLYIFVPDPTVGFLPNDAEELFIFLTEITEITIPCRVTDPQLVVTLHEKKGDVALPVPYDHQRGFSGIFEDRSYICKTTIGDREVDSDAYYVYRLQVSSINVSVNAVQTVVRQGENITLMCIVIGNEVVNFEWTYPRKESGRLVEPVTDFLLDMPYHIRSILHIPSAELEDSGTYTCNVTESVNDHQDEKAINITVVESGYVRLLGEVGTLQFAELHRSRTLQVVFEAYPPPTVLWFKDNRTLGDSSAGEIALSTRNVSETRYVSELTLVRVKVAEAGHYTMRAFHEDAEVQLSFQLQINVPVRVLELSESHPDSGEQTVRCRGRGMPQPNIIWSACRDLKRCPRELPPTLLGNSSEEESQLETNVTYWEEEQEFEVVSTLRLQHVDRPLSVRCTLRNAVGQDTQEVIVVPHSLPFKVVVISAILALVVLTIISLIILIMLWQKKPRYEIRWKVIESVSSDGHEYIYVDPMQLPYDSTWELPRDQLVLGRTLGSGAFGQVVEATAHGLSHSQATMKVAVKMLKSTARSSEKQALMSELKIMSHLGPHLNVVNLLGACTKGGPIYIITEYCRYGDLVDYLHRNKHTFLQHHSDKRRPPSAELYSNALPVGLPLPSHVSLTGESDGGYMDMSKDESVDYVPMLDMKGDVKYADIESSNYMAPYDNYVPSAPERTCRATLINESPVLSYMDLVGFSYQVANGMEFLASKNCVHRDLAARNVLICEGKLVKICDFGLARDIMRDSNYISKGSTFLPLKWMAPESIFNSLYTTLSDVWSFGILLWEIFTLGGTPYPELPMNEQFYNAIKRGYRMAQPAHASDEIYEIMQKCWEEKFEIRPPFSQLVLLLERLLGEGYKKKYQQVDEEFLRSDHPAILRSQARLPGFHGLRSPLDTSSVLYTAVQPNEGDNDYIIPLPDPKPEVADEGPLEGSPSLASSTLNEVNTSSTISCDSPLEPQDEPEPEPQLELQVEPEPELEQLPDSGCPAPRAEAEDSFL
Sequence of VEGF-receptor 2 and PDGF-receptor beta (KDR and PDGFR beta) (Homo sapiens) (P35968 whole entry, looked up): as the sequence (P35968 whole entry, looked up) above

Row | IC50 [1] [nM] | SMILES | further results
1 | 113 | Clc1ccc(-c2cnc3c(-c4ccncc4)cnn3c2)cc1 | –
2 | 63 | Fc1ccc(-c2cnn3cc(-c4ccncc4)cnc23)cc1 | –
3 | 265 | Fc1ccc(-c2cnn3cc(-c4ccncc4)cnc23)cc1Cl | –
4 | 350 | Clc1cccc(-c2cnn3cc(-c4ccncc4)cnc23)c1 | –
5 | 28 | C1=C(c2cnn3cc(-c4ccncc4)cnc23)CCC1 | –
6 | 71 | c1ccc(-c2cnn3cc(-c4ccncc4)cnc23)cc1 | –

More lines, now with the values behind:

Row | SMILES | IC50 [1] [nM] | further results
7 | C1=C(c2cnn3cc(-c4ccncc4)cnc23)CCCC1 | 41 | –
8 | c1ccc(-c2cnn3cc(-c4ccccn4)cnc23)cc1 | 88 | –
9 | COc1ccc(-c2cnc3c(-c4ccccn4)cnn3c2)cc1 | 1000 | –
10 | c1cc(-c2cnc3c(-c4ccsc4)cnn3c2)ccn1 | – | IC50 [2]: 127 nM
11 | COc1ccc(-c2cnc3c(-c4ccsc4)cnn3c2)cc1 | – | logP [3]: > 4
12 | Cc1ccc(-c2cnc3c(-c4ccncc4)cnn3c2)cc1 | 62 | –
13 | c1cc(-c2cnc3c(-c4ccncc4)cnn3c2)ccn1 | – | logP [3]: 2.5
14 | COc1ccc(-c2cnc3c(-c4cccnc4)cnn3c2)cc1 | 41 | –
15 | COc1ccc(-c2cnc3c(-c4ccncc4)cnn3c2)cc1 | – | Ratio [4]: 0.5; Ratio [5]: 2.2; Ratio [6]: 27; logP [3]: 4
16 | COc1cccc(-c2cnn3cc(-c4ccncc4)cnc23)c1 | 510 | –
17 | c1cc(-c2cnn3cc(C4CCCCC4)cnc23)cs1 | 280 | –
